Source: BigSolDB 2.1

## CO[C@H]1C[C@@H]2CC[C@@H](C)[C@@](O)(O2)C(=O)C(=O)N2CCCC[C@H]2C(=O)O[C@H]([C@H](C)C[C@@H]2CC[C@@H](O)[C@H](OC)C2)CC(=O)[C@H](C)/C=C(\C)[C@@H](O)[C@@H](OC)C(=O)[C@H](C)C[C@H](C)/C=C/C=C/C=C/1C
In acetone, 295 K
  solubility (mole fraction): 0.00316
In acetone, 300 K
  solubility (mole fraction): 0.00321
In acetone, 305 K
  solubility (mole fraction): 0.00343
In acetone, 310 K
  solubility (mole fraction): 0.00388
In acetone, 315 K
  solubility (mole fraction): 0.00433
In acetone, 320 K
  solubility (mole fraction): 0.0047
In acetone, 325 K
  solubility (mole fraction): 0.00487
In acetone, 330 K
  solubility (mole fraction): 0.00511
In acetone, 335 K
  solubility (mole fraction): 0.00545
In acetone, 340 K
  solubility (mole fraction): 0.00627
In acetone, 345 K
  solubility (mole fraction): 0.00721
In chloroform, 295 K
  solubility (mole fraction): 0.00272
In chloroform, 300 K
  solubility (mole fraction): 0.00289
In chloroform, 305 K
  solubility (mole fraction): 0.00311
In chloroform, 310 K
  solubility (mole fraction): 0.00325
In chloroform, 315 K
  solubility (mole fraction): 0.00346
In chloroform, 320 K
  solubility (mole fraction): 0.00369
In chloroform, 325 K
  solubility (mole fraction): 0.00386
In chloroform, 330 K
  solubility (mole fraction): 0.00413
In chloroform, 335 K
  solubility (mole fraction): 0.00437
In chloroform, 340 K
  solubility (mole fraction): 0.00458
In chloroform, 345 K
  solubility (mole fraction): 0.00495
In dichloromethane, 295 K
  solubility (mole fraction): 0.0019
In dichloromethane, 300 K
  solubility (mole fraction): 0.00201
In dichloromethane, 305 K
  solubility (mole fraction): 0.0022
In dichloromethane, 310 K
  solubility (mole fraction): 0.00246
In dichloromethane, 315 K
  solubility (mole fraction): 0.00271
In dichloromethane, 320 K
  solubility (mole fraction): 0.00279
In dichloromethane, 325 K
  solubility (mole fraction): 0.00306
In dichloromethane, 330 K
  solubility (mole fraction): 0.00333
In dichloromethane, 335 K
  solubility (mole fraction): 0.00351
In dichloromethane, 340 K
  solubility (mole fraction): 0.00397
In dichloromethane, 345 K
  solubility (mole fraction): 0.00433
In ethanol, 295 K
  solubility (mole fraction): 0.00137
In ethanol, 300 K
  solubility (mole fraction): 0.00143
In ethanol, 305 K
  solubility (mole fraction): 0.00163
In ethanol, 310 K
  solubility (mole fraction): 0.00184
In ethanol, 315 K
  solubility (mole fraction): 0.00197
In ethanol, 320 K
  solubility (mole fraction): 0.0021
In ethanol, 325 K
  solubility (mole fraction): 0.00237
In ethanol, 330 K
  solubility (mole fraction): 0.00259
In ethanol, 335 K
  solubility (mole fraction): 0.00275
In ethanol, 340 K
  solubility (mole fraction): 0.00291
In ethanol, 345 K
  solubility (mole fraction): 0.00317
In methanol, 295 K
  solubility (mole fraction): 0.00072
In methanol, 300 K
  solubility (mole fraction): 0.00088
In methanol, 305 K
  solubility (mole fraction): 0.00107
In methanol, 310 K
  solubility (mole fraction): 0.00123
In methanol, 315 K
  solubility (mole fraction): 0.00143
In methanol, 320 K
  solubility (mole fraction): 0.00146
In methanol, 325 K
  solubility (mole fraction): 0.00163
In methanol, 330 K
  solubility (mole fraction): 0.00171
In methanol, 335 K
  solubility (mole fraction): 0.00183
In methanol, 340 K
  solubility (mole fraction): 0.00188
In methanol, 345 K
  solubility (mole fraction): 0.00205
